Results as given in patent publication USRE46873E1, “Multi-targeted RNAi therapeutics for scarless wound healing of skin” (Sirnaomics, Inc., priority 2007, dated 2018).
Bridges are numbered along the chain shown (N, C = ends). Roman numbers before positions name the chains, in order. Where no end group is shown, it is not given here.

What was measured:
[1] = system: lung, liver, and kidney; assay: In vivo toxicity of HK peptides after intravenous administration; details: mice, 1000 μg, 24 h after injection; preliminary studies
Protocol: H2K4b, had the strongest antifungal effect reducing growth of C. albicans to nearly 40% at 37.5 μg/ml (3.4 μM) and 85% at 50 μg/ml (4.5 μM). […] Relative to in vitro toxicity, the in vivo toxicity differences among these peptides are more striking. […] Of the three organs examined, the kidney appears to be the most sensitive to these peptides. Relative to H2K4b, a decrease in cationic charge in the terminal branches of H3K4b and H3K(G)K4b may, in part, account for their reduced toxicity in vitro and in vivo; the reduction in charge may decrease their interaction with negatively charged cell membranes. With eight additional glycines, H3K(G)4b polymer has a reduced charge per total number of amino acids relative to H3K4b. Because there are five lysines in each terminal arm of H3K(G)4b and H3K4b, however, we doubt that minimal charge differences readily explain the reduced toxicity of H3K(G)4b relative to H3K4b. An alternative possibility is that glycines may disrupt alpha helices in the terminal branches, thereby enhancing the flexibility of the polymer and allowing enzymatic degradation. Several secondary structure programs for peptides predict a marked difference in the alpha helical content between a glycine containing peptide, H3K(G)4b, and the non-glycine containing peptides, H2K4b and H3K4b.

[2] = system: Cox-2 mRNA in PC3 cells; assay: siRNA transfection of PC3 cells, RT-PCR of Cox-2; type: cell-based; details: human PC3 cells
Protocol: (§1) • 4. Human prostate carcinoma cell-PC3 was used for detection of the gene expression knockdown. A series of standard transfection experiments were carried out using the protocol provided by the vendor (Invitrogen) with the siRNA duplexes identified in step 2 accordingly. • 5. Total RNA samples were isolated and subjected to RT-PCR analysis using the respective PCR primers identified in step 3 above.
(§2) Among ten in silico designed 25 mer siRNA sequences, we first pick three for testing. Before testing those siRNA oligos (synthesized by Qiagen) in the corresponding cells, such as human PC-3 cell (a bone metastasis of a […] prostatic adenocarcinoma), we first use RT-PCR to survey the presence of the target gene expression in the total RNA samples (FIG. 14). […] We further surveyed the expression of these three genes in the mouse C166 cell. […] Therefore, we can transfect the three selected siRNA oligos targeting a particular gene into the corresponding cell and then evaluate their gene silencing potential, followed by total RNA isolation and RT-PCR analysis. Three doses were used for each transfection on the 6-well plate: 0.5 ug, 1 ug and 2 ug, with Lipo2000 following the vendor's direction. […] The RT-PCR products were also subjected to the gel electrophoreses and quantification. […]

[3] = system: Hoxb13 mRNA in PC3 cells; assay: siRNA transfection of PC3 cells, RT-PCR of Hoxb13; type: cell-based; details: human PC3 cells
Protocol: as §1, §2

[4] = system: TGF-β1 mRNA in PC3 cells; assay: siRNA transfection of PC3 cells, RT-PCR of TGF-beta1; type: cell-based; details: human PC3 cells
Protocol: as §1, §2

Substance: I: KHHHKHHHKHHHKHHHKKKK-NH2 / II: KHHHKHHHKHHHKHHHK / III: KHHHKHHHKHHHKHHHK / IV: KHHHKHHHKHHHKHHHK (amide I:18-IV:C, I:19-III:C, I:20-II:C) [H3K4b]
- organ toxicity [1]: minimally toxic to the kidney

Substance: hmCX-1: 25-mer siRNA duplex targeting human and mouse COX-2; sense 5′-GGUCUGGUGCCUGGUCUGAUGAUGU-3′ (SEQ ID NO: 9) (antisense ACAUCAUCAGACCAGGCACCAGACC; listed as RNA, further chemistry not given here)
- Cox-2 gene expression / silencing activity (RT-PCR) [2]: potent

Substance: hmHX-1: 25-mer siRNA duplex targeting human and mouse HoxB13; sense 5′-GGUGGCUGGAACAGCCAGAUGUGUU-3′ (SEQ ID NO: 7) (antisense AACACAUCUGGCUGUUCCAGCCACC; listed as RNA, further chemistry not given here)
- Hoxb13 gene expression / silencing activity (RT-PCR) [3]: potent

Substance: hmTF-2: 25-mer siRNA duplex targeting human and mouse TGF-β1; sense 5′-CCCAAGGGCUACCAUGCCAACUUCU-3′ (SEQ ID NO: 11) (antisense AGAAGUUGGCAUGGUAGCCCUUGGG; listed as RNA, further chemistry not given here)
- TGF-β1 gene expression / silencing activity (RT-PCR) [4]: potent
